For test [1], the target named is T1, Nuclear receptor ROR-gamma (Mus musculus, UniProt P51450).
T1 sequence (P51450 whole entry): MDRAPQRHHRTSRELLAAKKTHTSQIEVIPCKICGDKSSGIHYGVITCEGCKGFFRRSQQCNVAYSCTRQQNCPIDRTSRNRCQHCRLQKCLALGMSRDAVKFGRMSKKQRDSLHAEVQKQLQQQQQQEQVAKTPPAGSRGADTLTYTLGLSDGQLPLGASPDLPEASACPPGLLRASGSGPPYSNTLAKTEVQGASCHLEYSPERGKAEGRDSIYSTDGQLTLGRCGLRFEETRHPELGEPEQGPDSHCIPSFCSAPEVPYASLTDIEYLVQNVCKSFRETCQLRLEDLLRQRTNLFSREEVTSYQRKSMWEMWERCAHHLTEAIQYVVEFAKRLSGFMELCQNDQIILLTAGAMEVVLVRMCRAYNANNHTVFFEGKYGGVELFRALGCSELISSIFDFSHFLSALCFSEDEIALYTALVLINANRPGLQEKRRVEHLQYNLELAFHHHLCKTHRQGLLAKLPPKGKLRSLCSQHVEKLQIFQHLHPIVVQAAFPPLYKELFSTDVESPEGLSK
Nature of the test: Inverse agonist activity at RORgammat in mouse Th17 cells assessed as effect on cell differentiation measured as IL-17 level after 3 days by ELISA. In kind it is cell-based.

Test [2] addresses T2, Nuclear receptor ROR-gamma (Homo sapiens, UniProt P51449).
T2 sequence (P51449 whole entry): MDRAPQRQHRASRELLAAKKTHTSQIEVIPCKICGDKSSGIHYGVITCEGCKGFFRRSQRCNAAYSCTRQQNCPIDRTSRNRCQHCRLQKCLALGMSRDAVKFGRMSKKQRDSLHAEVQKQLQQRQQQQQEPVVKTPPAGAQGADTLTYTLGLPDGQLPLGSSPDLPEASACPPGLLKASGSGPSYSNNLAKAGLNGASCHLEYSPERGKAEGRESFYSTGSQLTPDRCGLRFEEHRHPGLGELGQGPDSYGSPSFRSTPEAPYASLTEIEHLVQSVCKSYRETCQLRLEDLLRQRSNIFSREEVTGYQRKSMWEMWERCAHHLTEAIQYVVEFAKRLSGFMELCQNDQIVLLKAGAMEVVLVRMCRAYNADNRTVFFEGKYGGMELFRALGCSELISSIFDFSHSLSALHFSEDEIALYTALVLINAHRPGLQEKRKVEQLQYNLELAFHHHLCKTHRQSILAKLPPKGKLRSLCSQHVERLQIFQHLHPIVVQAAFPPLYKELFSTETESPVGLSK
Description: Inverse agonist activity at biotinylated human RORgammat LBD expressed in Escherichia coli BL21 assessed as inhibition of SRC1 recruitment after 1 hr by FRET assay in presence of N-(2-chloro-6-fluorobenzyl)-N-((2'-methoxy-[1,1'-biphenyl]-4-yl)methyl)benzenesulfonamide

Test [3] has as its target T2, Nuclear receptor ROR-gamma. The source holds these as a separate data set.
Description: Inverse agonist activity at biotinylated human RORgammat expressed in Escherichia coli BL21 assessed as effect on recruitment of SRC1/2 after 1 hr by dual-FRET assay
The target in test [4] is T3, Nuclear receptor ROR-gamma (Homo sapiens) (UniProt P51449).
T3 sequence (whole entry): T2 sequence (P51449 whole entry)
Description: Binding affinity to human RORgammat expressed in Escherichia coli BL21 assessed as melting temperature by thermal shift assay

Where only a bound is given, the exact number is not on record here.

Consider `CCS(=O)(=O)c1ccc(CC(=O)Nc2ccc3c(ccn3CCc3ccc(OC(C)C)cc3)c2)cc1`, for which, in test [1], the IC50 was determined as 70 nM.

For `CCS(=O)(=O)c1ccc(CC(=O)Nc2ccc(NCCc3ccc(C(F)(F)F)cc3)c(Cl)c2)cc1`, the IC50 in test [1] was 1020 nM.

On to `CCS(=O)(=O)c1ccc(CC(=O)Nc2ccc3c(ccn3CCc3ccc(Cl)cc3)c2)cc1`, for which, in test [1], the IC50 was 164 nM.

Regarding `CCS(=O)(=O)c1ccc(CC(=O)Nc2ccc3c(ccn3CCc3ccc(C#N)cc3)c2)cc1`, the 50% inhibitory concentration (IC50) in test [1] worked out at 457 nM.

Turning to `CCCN(CCc1ccc(C(F)(F)F)cc1)c1ccc(NC(=O)Cc2ccc(S(=O)(=O)CC)cc2)cc1`, in test [1], the half-inhibitory concentration (IC50) is 733 nM.

In the case of `CCS(=O)(=O)c1ccc(CC(=O)Nc2ccc3c(ccn3CCc3ccc(Cl)c(Cl)c3)c2)cc1`, the half-inhibitory concentration (IC50) in test [1] came out at 40 nM.

Turning to `CCS(=O)(=O)c1ccc(CC(=O)Nc2ccc3c(ccn3CCc3ccc(Cl)cc3Cl)c2)cc1`, the IC50 in test [1] was determined as 9 nM.

For the molecule `CCS(=O)(=O)c1ccc(CC(=O)Nc2ccc3c(ccn3CCc3ccc(C(F)(F)F)cc3)c2)cc1`, the IC50 in test [1] was 31 nM.

For `CCCN(Cc1ccc(NC(=O)Cc2ccc(S(=O)(=O)CC)cc2)cc1)Cc1ccc(C(F)(F)F)cc1`, the half-maximal inhibitory concentration (IC50) in test [1] amounted to 320 nM.

As for `CCS(=O)(=O)c1ccc(CC(=O)Nc2nc(-c3cc(Cl)ccc3Cl)cs2)cc1`, the IC50 in test [2] and in test [3] was 1000 nM each time. In addition, in test [4], the ΔTm was determined as 7.1 °C.

As for `CCS(=O)(=O)c1ccc(CC(=O)Nc2ccc(CNCc3ccc(C(F)(F)F)cc3)cc2)cc1`, in test [1], the IC50 was over 10000 nM.

The molecule `CCCN(Cc1ccc(C)cc1)Cc1ccc(NC(=O)Cc2ccc(S(=O)(=O)CC)cc2)cc1` yielded an IC50 in test [2] of over 25000 nM. For the same molecule, the concentration giving a half-maximal response (EC50) in test [3] came to 25 nM.

One may read the IC50 as the concentration needed to halve the response being measured. As a reminder, the ΔTm is the change in melting temperature against a reference sample. Broadly, the EC50 is the concentration at which the effect is half-maximal. High values mean weaker potency, low ones greater potency.

Source of the values: ChEMBL document CHEMBL3108708, “Discovery of Tertiary Amine and Indole Derivatives as Potent RORγt Inverse Agonists” (ACS Med Chem Lett, 2014).
